In one test the test system is hippocampal brain slices. Put plainly: Metabolic labeling of newly synthesized proteins in hippocampal brain slices. Type of test: cell-based.
For test [1], the system named is cultured hippocampal neurons. Put plainly: Metabolic pulse labeling (35S-methionine incorporation) in cultured hippocampal neurons. Type of test: cell-based, rat. Particulars: for Increase in translation levels: hippocampal neuronal cultures, 35S metabolic labeling.
A further test deals with hippocampal slices. Type of test: cell-based, mice.
The test system of test [2] is cultured primary hippocampal neurons. Briefly: Translation reporter assay: EGFP-αCaMKII 3′ UTR reporter mRNA transfected into neurons. In kind it is cell-based, rat.
For a further test, the system named is phospho-eIF4E (S209). Put plainly: Western analysis of eIF4E phosphorylation. In kind it is cell-based, rat. The method, then: (§1) Western analysis. Homogenates were prepared in cold RIPA buffer containing protease inhibitors and phosphatase inhibitors. Hippocampal neurons were homogenized 8 minutes after stimulation. Hippocampal slices were frozen on dry ice 10 minutes after tetanization, and the CA1 and CA3 fields were microdissected and homogenized. Western analysis was performed with rabbit polyclonal antisera against dually-phosphorylated ERK1/2, phospho-S6 (S235/S236), phospho-eIF4E (S209), and phospho-4E-BP (S65) (Cell Signaling). […] Therefore, since 4E-BP2 is the most abundantly expressed 4E-BP in the brain, it is likely that the results reflected 4E-BP2 levels and phosphorylation state. Blots were stripped and reprobed with antisera directed against total ERK1/2, S6, eIF4E, and 4E-BP (Cell Signaling). Results were quantified with ImageJ (NIH), calculated as the ratio of phosphorylated species to […], and then normalized to the untreated control condition Staining of total protein with Ponceau-S confirmed equal loading.

Another test relates to phospho-S6 (S235/S236). Put plainly: Western analysis of S6 phosphorylation. In kind it is cell-based, rat. The method, then: as §1
The subject of another test is phospho-4E-BP (S65). Briefly: Western analysis of 4E-BP phosphorylation. In kind it is cell-based, rat. As for the experimental part:
as §1

Test [3] relates to dually-phosphorylated ERK1/2.
Where [4] appears, read: hippocampal brain slices (FIG. 9), agonist 10 uM or 50 uM.
The mark [5] stands for this setting: cultured hippocampal neurons (FIG. 10), agonist 10 uM or 50 uM.
Where [6] appears, read: hippocampal cultures, Western Blot.

Several values for one entry are separate records, joined by “and”; a condition that tells them apart may be missing. Identical values can stand only once. Entries after “also recorded” stand apart in the source; their conditions may differ. Like-named read-outs stand apart in the source and are kept apart here.

13 molecules from patent US20100150839A1, “Compositions and Methods for Modulating Cognitive Function” (Massachusetts Institute of Technology, priority 2005, published 2010) can be followed below.

For `C[N+](C)(C)CCOC(N)=O` [carbachol], the “Translation of endogenous neuronal mRNAs (metabolic labeling of newly synthesized proteins)” value (from here on “Translation of endogenous neuronal mRNAs”) (with hippocampal brain slices (setting [4]); in [1] (setting [5])) was “stimulate translation” throughout.

As for actinomycin-D, in the test with hippocampal slices, the “Additional decrement in L-LTP” value is “did not produce any additional decrement in L-LTP”; the “Kinetic pattern of L-LTP inhibition” value is listed as “distinct, delayed pattern of inhibition”; the “L-LTP magnitude at 60 min. post-tetanization” value was 157±4% and 157±3%; the “L-LTP magnitude at 200 minutes” value was 107±4% and 122±5%. Further, in the test with hippocampal slices, the “Time after onset of tetanization during which L-LTP magnitude remained indistinguishable from untreated slices” value is reported as “approximately 75 minutes”.

As to `CC(C)NCC(O)c1ccc(O)c(O)c1` (centres unmarked) [isoproteronol], the “Translation of endogenous neuronal mRNAs” value (with hippocampal brain slices (setting [4]); in [1] (setting [5])) was “stimulate translation” each time.

In the case of `CCCN1CCC[C@@H]2Cc3n[nH]cc3C[C@H]21` [quinpirole], the “Translation of endogenous neuronal mRNAs” value (in the test on hippocampal brain slices; in test [1]) was “stimulate translation” in each case.

`O=[N+]([O-])c1cc2nc(O)c(O)nc2cc1[N+](=O)[O-]` [DNQX]: the “Translation of EGFP-αCaMKII-A20 reporter mRNA” value in [2] is given as “significantly inhibited”.

`NCCc1ccc(O)c(O)c1` [dopamine]: in test [1], the “Increase in translation levels” value amounted to 77%+/−26%.

Consider `Oc1cc2c(cc1O)C(c1ccccc1)CNCC2` (centres unmarked) [SKF38393], for which the “Translation of endogenous neuronal mRNAs” value (in the test with hippocampal brain slices (setting [4]); in test [1] (setting [5])) was “stimulate translation” in each case.

Regarding Sp-cAMPS, the “Effect on translation (in words)” value in test [1] is recorded as “increased translation”.

With `COc1ccc(C[C@H]2NC[C@H](O)[C@H]2OC(C)=O)cc1` [anisomycin], in the test with hippocampal slices, the “Additional decrement in L-LTP” value was “did not produce any additional decrement in L-LTP”; the “Kinetic pattern of L-LTP inhibition” value is reported as “progressive inhibition of L-LTP”; the “L-LTP magnitude at 200 minutes” value is 108±5% and 113±5%.

As for `N#CC(=C(/N)Sc1ccccc1N)/C(C#N)=C(\N)Sc1ccccc1N` [U0126], the “Effect of pretreatment on agonist-induced increases in neuronal protein synthesis” value in the test with hippocampal brain slices is “blocked”. Besides, in the test on phospho-eIF4E (S209), the “Effect on DHPG-induced increase in phosphorylation of eIF4E” value is given as “blocked” and the “Phosphorylation of eIF4E” value was “significantly inhibited; also recorded: significantly reduced”. In the test with phospho-S6 (S235/S236), the “Effect on DHPG-induced increase in phosphorylation of S6” value was “blocked” and the “Phosphorylation of S6” value is “significantly inhibited; also recorded: significantly reduced”. Also, in test [2], the “Effect of concurrent treatment on stimulated EGFP-αCaMKII-A20 mRNA translation” value is given as “significantly attenuated the effects of stimulation”; the “Sensitivity of activity-induced reporter mRNA translation to inhibition” value is given as “persisted after mutation of the CPEs”; the “Translation of EGFP-αCaMKII-A20 reporter mRNA, combined pretreatment” value was “no additional inhibition”. Moreover, in test [1], the “Bulk translation of endogenous transcripts (35S-methionine incorporation)” value is “strongly inhibited”, the “Effect of pretreatment on agonist-induced increases in neuronal protein synthesis” value is recorded as “blocked”, the “Effect on DHPG-induced increase in translation rates” value was “blocked” and the “Effect on dopamine-induced increase in translation” value is “blocked”. The “Effect on spaced depolarization-induced increase in translation” value in test [1] is “blocked”. Besides, in the test on synaptoneurosomes, the “Translation of endogenous synaptodendritic mRNAs” value is “significantly reduced”. The “Phosphorylation of 4E-BP” value in the test with phospho-4E-BP (S65) is reported as “significantly inhibited”. Moreover, in [3], the “ERK phosphorylation (phospho-ERK levels)” value was “entirely abolished” and the “Phosphorylation of ERK” value was “significantly reduced”.

On to `NC(CCCP(=O)(O)O)C(=O)O` (centres unmarked) [AP5], for which the “Translation of EGFP-αCaMKII-A20 reporter mRNA” value in test [2] (spontaneous neuronal activity, pretreatment with AP5 (100 μM) and DNQX (10 μM) together) is given as “significantly inhibited”.

Turning to `OCC(O)c1ccc(O)c(O)c1` (centres unmarked) [DHPG, 3,4-Dihydroxyphenylglycol], the “Increase in phosphorylation of eIF4E” value in the test with phospho-eIF4E (S209) (setting [6]) was found to be 33%+/−3%. In addition, the “Increase in phosphorylation of S6” value in the test with phospho-S6 (S235/S236) (setting [6]) came to 52%+/−18%. Also, in [1], the “Increase in translation levels” value was 50%+/−20%.

B1: BDNF: brain derived neurotrophic factor; activates trkB (protein, UniProt P23560 19-247, looked up)
Neurotrophic factor BDNF …: APMKEANIRGQGGLAYPGVRTHGTLESVNGPKAGSRGLTSLADTFEHVIEELLDEDQKVRPNEENNKDADLYTSRVMLSSQVPLEPPLLFLLEEYKNYLDAANMSMRVRRHSDPARRGELSVCDSISEWVTAADKKTAVDMSGGTVTVLEKVPVSKGQLKQYFYETKCNPMGYTKEGCRGIDKRHWNSQCRTTQSYVRALTMDSKKRIGWRFIRIDTSCVCTLTIKRGR
Turning to B1, in [2] (100 ng/mL BDNF for 4 hours, 40 μM bicuculline for 8 min., after U0126 preincubation and wash), the “Stimulation of EGFP-αCaMKII-A20 mRNA translation” value is on record as “significant increases”.
